Reference: patent US8946203B2, “Benzodioxane inhibitors of leukotriene production” (Boehringer Ingelheim International GmbH, priority 2012, dated 2015)

Columns and labels:
human LTA4 hydrolase = molecular target: T1, human LTA4 hydrolase (Homo sapiens, UniProt P09960); experiment: LTA4H Enzyme assay (cleavage of Arg-AMC, fluorescence); assay type: biochemical; details: LTA4H Enzyme 1 nM, Arg-AMC substrate 50 μM, room temperature 1 h, fluorescence; read-out: IC50 values of LTA4H Enzyme assay
T1 sequence (P09960 1-611): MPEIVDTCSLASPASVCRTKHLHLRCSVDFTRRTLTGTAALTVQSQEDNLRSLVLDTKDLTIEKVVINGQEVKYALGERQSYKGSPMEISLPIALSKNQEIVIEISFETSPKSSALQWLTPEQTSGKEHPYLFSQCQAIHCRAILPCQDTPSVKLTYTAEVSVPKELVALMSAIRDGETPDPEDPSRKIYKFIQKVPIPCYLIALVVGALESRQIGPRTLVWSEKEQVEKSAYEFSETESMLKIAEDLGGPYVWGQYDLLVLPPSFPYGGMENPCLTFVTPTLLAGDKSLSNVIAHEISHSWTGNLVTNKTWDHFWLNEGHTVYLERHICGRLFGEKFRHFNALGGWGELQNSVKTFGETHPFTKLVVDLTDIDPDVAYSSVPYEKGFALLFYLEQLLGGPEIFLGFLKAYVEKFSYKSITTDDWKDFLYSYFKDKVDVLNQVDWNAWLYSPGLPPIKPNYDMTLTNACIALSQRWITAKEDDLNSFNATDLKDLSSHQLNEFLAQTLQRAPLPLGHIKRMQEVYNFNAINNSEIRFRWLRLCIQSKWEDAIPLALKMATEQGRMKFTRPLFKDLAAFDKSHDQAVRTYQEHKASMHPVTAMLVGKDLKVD
How it was run: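 Aminomethylcoumarin release measured fluorimetrically (380/460 nm) after 1 h at room temperature. Reaction: 1 nM final enzyme, 50 μM final Arg-AMC and compound in Tris-HCl pH 7.5 with 100 mM KCl and 0.5% BSA.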

[1] = test system: synthesis of LTB4 in human whole blood; experiment: human whole blood (HWB) assay, LTB4 production inhibition after calcimycin stimulation; assay type: cell-based; details: heparinized human whole blood, calcimycin 20 μM, plasma LTB4 by HTRF
How it was run: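 Plasma LTB4, quantified by HTRF immunoassay, is the read-out after calcimycin challenge (20 μM final, 30 min, 37 °C) of heparinized whole blood that had been pretreated with compound for 15 min at 37 °C; values given as IC50.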

Compound `COC1CCN(Cc2ccc([C@H]3COc4cccnc4O3)cc2)C1` (stereo partly drawn) [Example 168, (3S)-3-{4-[(3-methoxypyrrolidin-1-yl)methyl]phenyl}-2,3-dihydro[1,4]dioxino[2,3-b]pyridine] has an IC50 (human LTA4 hydrolase) of 0.31 nM and an IC50 [1] of 39 nM.

Work on `O=C(O)C1CCN(Cc2ccc([C@H]3COc4ccccc4O3)cc2)CC1` [Example 200, (S)-1-[4-(2,3-dihydro-benzo[1,4]dioxin-2-yl)-benzyl]-piperidine-4-carboxylic acid] yielded an IC50 (human LTA4 hydrolase) of 0.12 nM and an IC50 [1] of 83 nM.

For `c1cnc2c(c1)OC[C@H](c1ccc(CNC3CCC3)cc1)O2` [Example 173, N-{4-[(3S)-2,3-dihydro[1,4]dioxino[2,3-b]pyridin-3-yl]benzyl}cyclobutanamine], the IC50 (human LTA4 hydrolase) was 0.73 nM and the IC50 [1] was 73 nM.

Compound `O=C(NCCO)C1CCN(Cc2ccc(C3COc4ccccc4O3)cc2)CC1` (racemic) [Example 52, 1-[4-(2,3-dihydro-1,4-benzodioxin-2-yl)benzyl]-N-(2-hydroxyethyl)piperidine-4-carboxamide] has an IC50 (human LTA4 hydrolase) of 0.75 nM and an IC50 [1] of 145 nM.

Compound `CN1CCC2(CCN(Cc3ccc([C@H]4COc5ccccc5O4)cc3)CC2)C1=O` [Example 121, 8-{4-[(2S)-2,3-dihydro-1,4-benzodioxin-2-yl]benzyl}-2-methyl-2,8-diazaspiro[4.5]decan-1-one] has an IC50 (human LTA4 hydrolase) of 0.37 nM and an IC50 [1] of 159 nM.

Compound `O=C(C1CCN(Cc2ccc([C@H]3COc4cccnc4O3)cc2)CC1)N1CC(O)C1` [Example 286, {1-[(S)-4-(2,3-Dihydro-[1,4]dioxino[2,3-b]pyridin-3-yl)-benzyl]-piperidin-4-yl}-(3-hydroxy-azetidin-1-yl)-methanone] has an IC50 (human LTA4 hydrolase) of 0.35 nM and an IC50 [1] of 190 nM.

`CC(=O)N1CCC(N(C)Cc2ccc([C@H]3COc4ccccc4O3)cc2)CC1` [Example 14, 1-{4-[{4-[(2S)-2,3-dihydro-1,4-benzodioxin-2-yl]benzyl}(methyl)amino]piperidin-1-yl}ethanone] showed an IC50 (human LTA4 hydrolase) of 0.27 nM and an IC50 [1] of 155 nM.

`NC(=O)COC1CCN(Cc2ccc([C@H]3COc4cccnc4O3)cc2)CC1` [Example 274, 2-{1-[(S)-4-(2,3-Dihydro-[1,4]dioxino[2,3-b]pyridin-3-yl)-benzyl]-piperidin-4-yloxy}-acetamide] was tested, and the IC50 (human LTA4 hydrolase) was 0.15 nM and the IC50 [1] was 100 nM.

With `CS(=O)(=O)NC1CCN(Cc2ccc([C@H]3COc4cccnc4O3)cc2)CC1` [Example 190, N-(1-{4-[(3S)-2,3-dihydro[1,4]dioxino[2,3-b]pyridin-3-yl]benzyl}piperidin-4-yl)methanesulfonamide] the IC50 (human LTA4 hydrolase) was 0.09 nM and the IC50 [1] was 26 nM.
